Values of other authors in patent US20100196363A1, “CANCER TREATMENT COMBINATION THERAPY COMPRISING VINFLUNINE AND TRASTUZUMAB” (Pierre Fabre Medicament, priority 2007, published 2010).

System: breast cancer
Settings: vinflunine alone, same dosage, regimen and period; breast cancer patients

## CC[C@]12C=CCN3CC[C@@]4(c5cc([C@@]6(C(=O)OC)C[C@@H]7C[C@@H](C(C)(F)F)CN(Cc8c6[nH]c6ccccc86)C7)c(OC)cc5N(C)[C@H]4[C@@](O)(C(=O)OC)[C@@H]1OC(C)=O)[C@@H]32 [Vinflunine, 20′,20′difluoro-3′,4′-dihydrovinorelbine]
  Overall Response (RECIST): about 30%
